These compounds were tested on MHH-CALL-4 (assay: selective drug sensitivity score (sDSS, relative to normal bone marrow) (sDSS (score)); higher = more potent and effective on the cell line relative to normal bone marrow cells). Details: 72 h.
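Also: ALL cell lines in 384-well plates, five doses spanning 10,000-fold, each plate scaled between vehicle and 100 µmol/L benzalkonium chloride controls, sDSS an adapted area-under-curve metric.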

| Compound | selective drug sensitivity score |
| --- | --- |
| CC(=O)[C@]1(O)Cc2c(O)c3c(c(O)c2[C@@H](O[C@H]2C[C@H](N)[C@H](O)[C@H](C)O2)C1)C(=O)c1ccccc1C3=O [Idarubicin] (top concentration 1000 nM) | 7.64 |
| COc1cc2nccc(Oc3ccc(NC(=O)NC4CC4)c(Cl)c3)c2cc1C(N)=O [Lenvatinib] (top concentration 2500 nM) | -0.24 |
| N#Cc1ccc(C(c2ccc(C#N)cc2)n2cncn2)cc1 [Letrozole] (top concentration 10000 nM) | -0.04 |
| CCNCCS(=O)(=O)NC[C@@]1(c2ccccc2)SC(NC(=O)C(C)(C)C)=NN1C(=O)C(C)(C)C [Litronesib] (top concentration 1000 nM) | 8.54 |
| CC[C@H](C)C(=O)O[C@H]1C[C@@H](C)C=C2C=C[C@H](C)[C@H](CC[C@@H]3C[C@@H](O)CC(=O)O3)[C@H]21 [Lovastatin] (top concentration 10000 nM) | -0.1 |
| Cn1cc(-c2cnn3c(N)c(Br)c([C@@H]4CCCNC4)nc23)cn1 [MK-8776] (top concentration 2500 nM) | -0.46 |
| Cc1cnc(-c2ccccc2C(C)C)nc1NCc1ccc(-n2ccnn2)cc1 [ML323] (top concentration 10000 nM) | -0.36 |
| O=C(CCNC(=O)c1ccc(OC(F)(F)F)cc1)N[C@@H]1CCCc2ccccc21 [ML390] (top concentration 50000 nM) | 1.8 |
| CN(C)C(=N)NC(=N)N [Metformin] (top concentration 100000 nM) | -0.02 |
| C[C@H]1C[C@@H]2[C@H]([C@@H](O)C[C@@]3(C)[C@H]2CC[C@]3(O)C(=O)CO)[C@@]2(C)C=CC(=O)C=C12 [Methylprednisolone] (top concentration 10000 nM) | 31.6 |
| FC(F)(F)c1ccc(/C=C/c2nc(COc3ccc(CCCCn4ccnn4)cc3)co2)cc1 [Mubritinib] (top concentration 1000 nM) | 3.46 |
| COc1cc2c(cc1OC(C)C)[C@H](c1ccc(Cl)cc1)N(c1ccc(N(C)C[C@H]3CC[C@H](N4CCN(C)C(=O)C4)CC3)cc1)C(=O)C2 [NVP-CGM097] (top concentration 25000 nM) | 7.06 |
| CCOc1cc2ncc(C#N)c(Nc3ccc(OCc4ccccn4)c(Cl)c3)c2cc1NC(=O)/C=C/CN(C)C [Neratinib] (top concentration 1000 nM) | -0.22 |
| COc1ncc(-c2ccc3nccc(-c4ccnnc4)c3c2)cc1NS(=O)(=O)c1ccc(F)cc1F [Omipalisib] (top concentration 1000 nM) | 13.1 |
| CN1CCN(c2cc(C(=O)Nc3ccc4c(c3)-c3c(c(C(N)=O)nn3-c3ccc(F)cc3)CC4)c(Cl)cn2)CC1 [PHA-408] (top concentration 10000 nM) | 2.18 |
| OC[C@H]1O[C@@H](n2cnc3c2N=CNC[C@H]3O)C[C@@H]1O [Pentostatin] (top concentration 10000 nM) | -0.44 |
| CC(C)N(C[C@H]1O[C@@H](n2cnc3c(N)ncnc32)[C@H](O)[C@@H]1O)[C@H]1C[C@@H](CCc2nc3cc(C(C)(C)C)ccc3[nH]2)C1 [Pinometostat] (top concentration 1000 nM) | 0 |
| Cc1ccc(=O)n(-c2ccccc2)c1 [Pirfenidone] (top concentration 10000 nM) | 0 |

These compounds were tested on RPMI-8402 in the same assay as above. Details: 72 h.

| Compound | selective drug sensitivity score |
| --- | --- |
| CC(=O)[C@]1(O)Cc2c(O)c3c(c(O)c2[C@@H](O[C@H]2C[C@H](N)[C@H](O)[C@H](C)O2)C1)C(=O)c1ccccc1C3=O [Idarubicin] (top concentration 1000 nM) | 10.5 |
| COc1cc2nccc(Oc3ccc(NC(=O)NC4CC4)c(Cl)c3)c2cc1C(N)=O [Lenvatinib] (top concentration 2500 nM) | -0.24 |
| N#Cc1ccc(C(c2ccc(C#N)cc2)n2cncn2)cc1 [Letrozole] (top concentration 10000 nM) | -0.04 |
| CCNCCS(=O)(=O)NC[C@@]1(c2ccccc2)SC(NC(=O)C(C)(C)C)=NN1C(=O)C(C)(C)C [Litronesib] (top concentration 1000 nM) | 18.7 |
| CC[C@H](C)C(=O)O[C@H]1C[C@@H](C)C=C2C=C[C@H](C)[C@H](CC[C@@H]3C[C@@H](O)CC(=O)O3)[C@H]21 [Lovastatin] (top concentration 10000 nM) | 1.8 |
| Cn1cc(-c2cnn3c(N)c(Br)c([C@@H]4CCCNC4)nc23)cn1 [MK-8776] (top concentration 2500 nM) | 1.44 |
| Cc1cnc(-c2ccccc2C(C)C)nc1NCc1ccc(-n2ccnn2)cc1 [ML323] (top concentration 10000 nM) | 3.44 |
| O=C(CCNC(=O)c1ccc(OC(F)(F)F)cc1)N[C@@H]1CCCc2ccccc21 [ML390] (top concentration 50000 nM) | 12.6 |
| CN(C)C(=N)NC(=N)N [Metformin] (top concentration 100000 nM) | -0.02 |
| C[C@H]1C[C@@H]2[C@H]([C@@H](O)C[C@@]3(C)[C@H]2CC[C@]3(O)C(=O)CO)[C@@]2(C)C=CC(=O)C=C12 [Methylprednisolone] (top concentration 10000 nM) | -2.1 |
| FC(F)(F)c1ccc(/C=C/c2nc(COc3ccc(CCCCn4ccnn4)cc3)co2)cc1 [Mubritinib] (top concentration 1000 nM) | 22.5 |
| COc1cc2c(cc1OC(C)C)[C@H](c1ccc(Cl)cc1)N(c1ccc(N(C)C[C@H]3CC[C@H](N4CCN(C)C(=O)C4)CC3)cc1)C(=O)C2 [NVP-CGM097] (top concentration 25000 nM) | -4.64 |
| CCOc1cc2ncc(C#N)c(Nc3ccc(OCc4ccccn4)c(Cl)c3)c2cc1NC(=O)/C=C/CN(C)C [Neratinib] (top concentration 1000 nM) | 3.08 |
| COc1ncc(-c2ccc3nccc(-c4ccnnc4)c3c2)cc1NS(=O)(=O)c1ccc(F)cc1F [Omipalisib] (top concentration 1000 nM) | 10.9 |
| CN1CCN(c2cc(C(=O)Nc3ccc4c(c3)-c3c(c(C(N)=O)nn3-c3ccc(F)cc3)CC4)c(Cl)cn2)CC1 [PHA-408] (top concentration 10000 nM) | 1.88 |
| OC[C@H]1O[C@@H](n2cnc3c2N=CNC[C@H]3O)C[C@@H]1O [Pentostatin] (top concentration 10000 nM) | -0.44 |
| CC(C)N(C[C@H]1O[C@@H](n2cnc3c(N)ncnc32)[C@H](O)[C@@H]1O)[C@H]1C[C@@H](CCc2nc3cc(C(C)(C)C)ccc3[nH]2)C1 [Pinometostat] (top concentration 1000 nM) | 0 |
| Cc1ccc(=O)n(-c2ccccc2)c1 [Pirfenidone] (top concentration 10000 nM) | 0 |

These compounds were tested on COG-LL-332h in the same assay as above. Details: 72 h.

| Compound | selective drug sensitivity score |
| --- | --- |
| CC(=O)[C@]1(O)Cc2c(O)c3c(c(O)c2[C@@H](O[C@H]2C[C@H](N)[C@H](O)[C@H](C)O2)C1)C(=O)c1ccccc1C3=O [Idarubicin] (top concentration 1000 nM) | 10 |
| COc1cc2nccc(Oc3ccc(NC(=O)NC4CC4)c(Cl)c3)c2cc1C(N)=O [Lenvatinib] (top concentration 2500 nM) | 1.66 |
| N#Cc1ccc(C(c2ccc(C#N)cc2)n2cncn2)cc1 [Letrozole] (top concentration 10000 nM) | -0.04 |
| CCNCCS(=O)(=O)NC[C@@]1(c2ccccc2)SC(NC(=O)C(C)(C)C)=NN1C(=O)C(C)(C)C [Litronesib] (top concentration 1000 nM) | 22.1 |
| CC[C@H](C)C(=O)O[C@H]1C[C@@H](C)C=C2C=C[C@H](C)[C@H](CC[C@@H]3C[C@@H](O)CC(=O)O3)[C@H]21 [Lovastatin] (top concentration 10000 nM) | 0.1 |
| Cn1cc(-c2cnn3c(N)c(Br)c([C@@H]4CCCNC4)nc23)cn1 [MK-8776] (top concentration 2500 nM) | 0.34 |
| Cc1cnc(-c2ccccc2C(C)C)nc1NCc1ccc(-n2ccnn2)cc1 [ML323] (top concentration 10000 nM) | 2.04 |
| O=C(CCNC(=O)c1ccc(OC(F)(F)F)cc1)N[C@@H]1CCCc2ccccc21 [ML390] (top concentration 50000 nM) | 16.1 |
| CN(C)C(=N)NC(=N)N [Metformin] (top concentration 100000 nM) | -0.02 |
